The term inhibition denotes the change of the read-out against control, counted positive when it falls. What is called MRT is the average time that molecules of a dose stay in the body. What is called Cmax is the maximum level reached in the sampled fluid or tissue. What is called CL/F is the apparent clearance, not corrected for the fraction that reaches the circulation. The term Tmax denotes the time from dosing to the highest level.

The target of series [1] is Histamine H2 receptor (Homo sapiens) (UniProt P25021). Nature of the series: Displacement of [125I]APT from recombinant human H2 histamine receptor at 10 uM after 120 mins by radiometric scintillation counting analysis relative to control. For orientation: Displacement assays read how much labelled ligand stays bound in the presence of the test substance.
The target in series [2] is L-type calcium channel (verapamil binding site) (Homo sapiens, UniProt O60840+Q01668+Q13698+Q13936). Nature of the series: Displacement of [3H] Diltiazem from human L-type calcium channel verapamil binding site at 10 uM after 20 hrs by scintillation analysis relative to control. The class given is protein assay. Conditions: probe [3H] Diltiazem.
In series [3] the target is Muscarinic acetylcholine receptor M3 (Homo sapiens) (UniProt P20309). In words: Displacement of [3H]4-DAMP from recombinant human M3 receptor at 10 uM after 60 mins by radiometric scintillation analysis relative to control.
Series [4] addresses Vasoactive intestinal polypeptide receptor 1 (Homo sapiens) (UniProt P32241). In words: Displacement of [125I]VIP recombinant human VPAC1 receptor at 10 uM after 120 mins by radiometric scintillation analysis relative to control.
Series [5] deals with 5-hydroxytryptamine receptor 2A (Homo sapiens, UniProt P28223). In words: Displacement of [3H]ketanserin from recombinant human 5-HT2A receptor at 10 uM after 60 mins by radiometric scintillation analysis relative to control.
Series [6] in a line: MRT in CD-1 mouse plasma at 5 mg/kg, ip measured up to 480 mins by LC/ESI-MS/MS analysis. The class given is ADME, organism-based.
Series [7] is described as follows: Ratio of drug uptake in CD-1 mouse brain to plasma at 5 mg/kg, ip measured up to 480 mins by LC/ESI-MS/MS analysis. The class given is ADME, organism-based. Conditions: read-out: BPR.
Series [8] is described as follows: Mutagenicity in Salmonella typhimurium TA98 at 50 ug/plate preincubated for 20 mins followed by addition of top agar and measured after 48 hrs by Ames test. Conditions: salmonella enterica subsp. enterica serovar typhimurium. The class given is toxicity. On the technique in general: In the Ames test, an excess of revertant colonies over the control signals mutagenicity.

In series [9] the target is Histamine H1 receptor (Homo sapiens) (UniProt P35367). Nature of the series: Displacement of [3H]pyrilamine from recombinant human H1 histamine receptor at 10 uM after 60 mins by radiometric scintillation analysis relative to control.
Series [10] deals with C-C chemokine receptor type 1 (Homo sapiens) (UniProt P32246). In words: Displacement of [125I]MIP-1alpha from recombinant human CCR1 receptor at 10 uM after 120 mins by radiometric scintillation analysis relative to control.
Series [11] has as its target Sodium-dependent serotonin transporter (Homo sapiens) (UniProt P31645). In words: Displacement of [3H]imipramine recombinant human 5-HT transporter at 10 uM after 60 mins by radiometric scintillation analysis relative to control.
Series [12] is described as follows: Cmax in CD-1 mouse brain at 5 mg/kg, ip measured up to 480 mins by LC/ESI-MS/MS analysis. The class given is ADME, organism-based. Set-up: dose 5 mg/kg, route intraperitoneal.
The nature of series [13]: Apparent clearance in CD-1 mouse plasma at 5 mg/kg, ip measured up to 480 mins by LC/ESI-MS/MS analysis. The class given is ADME, organism-based.
For series [14], the target named is Mu-type opioid receptor (Homo sapiens) (UniProt P35372). In words: Displacement of [3H]DAMGO from recombinant human MOR receptor at 10 uM after 120 mins by radiometric scintillation analysis relative to control.
Series [15] in a line: Tmax in CD-1 mouse plasma at 5 mg/kg, ip measured up to 480 mins by LC/ESI-MS/MS analysis. The class given is ADME, organism-based.
Series [16] can be described thus: Mutagenicity in Salmonella typhimurium TA100 at 100 ug/plate preincubated for 20 mins followed by addition of top agar and measured after 48 hrs by Ames test. The class given is toxicity. Conditions: salmonella enterica subsp. enterica serovar typhimurium.
In series [17] the target is Adrenergic receptor alpha-1 (Rattus norvegicus) (UniProt P15823+P23944+P43140). Nature of the series: Displacement of [3H]prazosin from rat brain alpha 1 receptor at 10 uM after 60 mins by radiometric scintillation analysis relative to control.

Sequence of Histamine H1 receptor (Homo sapiens) (P35367 whole entry): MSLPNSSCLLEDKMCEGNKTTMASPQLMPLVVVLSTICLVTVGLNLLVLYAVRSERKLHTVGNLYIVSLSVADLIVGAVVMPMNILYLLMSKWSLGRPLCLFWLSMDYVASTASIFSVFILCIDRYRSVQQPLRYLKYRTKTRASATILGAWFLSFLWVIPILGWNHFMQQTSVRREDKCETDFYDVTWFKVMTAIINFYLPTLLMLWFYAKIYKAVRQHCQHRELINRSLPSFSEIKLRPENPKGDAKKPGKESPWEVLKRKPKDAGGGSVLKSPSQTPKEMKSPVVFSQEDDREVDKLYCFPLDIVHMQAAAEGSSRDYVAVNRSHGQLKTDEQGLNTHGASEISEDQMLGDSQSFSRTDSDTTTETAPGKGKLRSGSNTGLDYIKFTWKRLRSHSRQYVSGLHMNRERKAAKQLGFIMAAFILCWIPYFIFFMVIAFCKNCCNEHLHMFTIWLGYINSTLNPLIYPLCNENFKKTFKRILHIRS
Sequence of Histamine H2 receptor (Homo sapiens) (P25021 whole entry): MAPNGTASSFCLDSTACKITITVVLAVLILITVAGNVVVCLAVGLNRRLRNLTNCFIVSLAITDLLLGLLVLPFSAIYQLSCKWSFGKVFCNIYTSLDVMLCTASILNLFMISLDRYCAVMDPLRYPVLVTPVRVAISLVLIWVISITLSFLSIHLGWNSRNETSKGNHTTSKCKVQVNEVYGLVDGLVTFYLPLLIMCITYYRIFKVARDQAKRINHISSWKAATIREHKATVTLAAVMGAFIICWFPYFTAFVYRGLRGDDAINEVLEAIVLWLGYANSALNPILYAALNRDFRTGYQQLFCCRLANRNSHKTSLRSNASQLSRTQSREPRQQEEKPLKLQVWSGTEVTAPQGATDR
Sequence of C-C chemokine receptor type 1 (Homo sapiens) (P32246 whole entry): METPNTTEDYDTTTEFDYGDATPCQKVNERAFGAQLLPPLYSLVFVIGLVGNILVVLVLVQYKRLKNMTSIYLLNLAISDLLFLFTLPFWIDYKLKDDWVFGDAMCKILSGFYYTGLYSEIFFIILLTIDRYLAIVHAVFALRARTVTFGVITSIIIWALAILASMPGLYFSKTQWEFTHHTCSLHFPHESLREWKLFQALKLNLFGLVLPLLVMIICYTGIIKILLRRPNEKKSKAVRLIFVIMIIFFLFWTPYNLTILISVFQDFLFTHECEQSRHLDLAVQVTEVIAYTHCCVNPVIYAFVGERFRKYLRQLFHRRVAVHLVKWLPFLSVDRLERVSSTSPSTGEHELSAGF
Sequence of Vasoactive intestinal polypeptide receptor 1 (Homo sapiens) (P32241 whole entry): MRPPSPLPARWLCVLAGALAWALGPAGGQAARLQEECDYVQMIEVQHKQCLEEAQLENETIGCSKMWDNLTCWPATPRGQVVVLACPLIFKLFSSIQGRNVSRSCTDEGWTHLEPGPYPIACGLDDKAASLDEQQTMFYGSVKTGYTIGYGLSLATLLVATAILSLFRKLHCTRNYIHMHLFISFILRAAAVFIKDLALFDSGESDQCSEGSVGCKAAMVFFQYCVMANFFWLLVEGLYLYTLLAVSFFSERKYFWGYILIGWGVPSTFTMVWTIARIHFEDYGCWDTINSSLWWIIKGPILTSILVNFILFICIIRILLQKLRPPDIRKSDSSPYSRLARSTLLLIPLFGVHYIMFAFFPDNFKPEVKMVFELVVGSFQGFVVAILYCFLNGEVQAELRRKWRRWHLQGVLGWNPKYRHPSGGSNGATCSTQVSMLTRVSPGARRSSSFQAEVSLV
Sequence of Sodium-dependent serotonin transporter (Homo sapiens) (P31645 whole entry, looked up): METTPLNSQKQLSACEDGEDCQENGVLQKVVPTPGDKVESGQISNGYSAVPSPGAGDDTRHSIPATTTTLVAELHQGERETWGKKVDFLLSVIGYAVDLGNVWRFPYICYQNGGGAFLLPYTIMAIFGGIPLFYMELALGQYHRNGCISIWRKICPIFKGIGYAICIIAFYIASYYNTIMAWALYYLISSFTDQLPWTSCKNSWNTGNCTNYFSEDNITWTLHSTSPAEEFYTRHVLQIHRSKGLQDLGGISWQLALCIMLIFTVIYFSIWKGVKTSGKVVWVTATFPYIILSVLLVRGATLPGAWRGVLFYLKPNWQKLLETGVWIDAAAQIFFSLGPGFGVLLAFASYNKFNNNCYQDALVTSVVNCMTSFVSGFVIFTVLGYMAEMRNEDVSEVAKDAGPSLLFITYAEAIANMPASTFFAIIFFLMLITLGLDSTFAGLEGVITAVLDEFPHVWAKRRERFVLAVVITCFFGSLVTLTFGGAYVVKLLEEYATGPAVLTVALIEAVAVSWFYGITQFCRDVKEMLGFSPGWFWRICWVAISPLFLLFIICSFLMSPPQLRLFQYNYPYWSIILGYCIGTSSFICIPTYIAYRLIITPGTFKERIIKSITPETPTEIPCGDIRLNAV
Sequence of Muscarinic acetylcholine receptor M3 (Homo sapiens) (P20309 whole entry, looked up): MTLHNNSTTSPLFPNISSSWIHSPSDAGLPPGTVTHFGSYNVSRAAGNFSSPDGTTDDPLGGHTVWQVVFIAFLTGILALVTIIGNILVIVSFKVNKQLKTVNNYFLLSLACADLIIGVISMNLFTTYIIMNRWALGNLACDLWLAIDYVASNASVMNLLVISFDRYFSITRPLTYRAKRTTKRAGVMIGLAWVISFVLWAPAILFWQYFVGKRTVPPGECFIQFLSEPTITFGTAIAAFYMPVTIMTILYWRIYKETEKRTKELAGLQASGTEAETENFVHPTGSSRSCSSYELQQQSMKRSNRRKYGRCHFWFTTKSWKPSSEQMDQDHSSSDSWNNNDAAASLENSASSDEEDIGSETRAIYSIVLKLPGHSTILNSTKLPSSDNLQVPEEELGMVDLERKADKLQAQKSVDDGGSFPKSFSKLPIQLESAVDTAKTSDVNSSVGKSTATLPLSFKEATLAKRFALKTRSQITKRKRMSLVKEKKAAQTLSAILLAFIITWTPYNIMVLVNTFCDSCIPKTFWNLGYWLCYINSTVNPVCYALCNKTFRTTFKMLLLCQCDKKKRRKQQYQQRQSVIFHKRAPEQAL
Sequence of Mu-type opioid receptor (Homo sapiens) (P35372 whole entry): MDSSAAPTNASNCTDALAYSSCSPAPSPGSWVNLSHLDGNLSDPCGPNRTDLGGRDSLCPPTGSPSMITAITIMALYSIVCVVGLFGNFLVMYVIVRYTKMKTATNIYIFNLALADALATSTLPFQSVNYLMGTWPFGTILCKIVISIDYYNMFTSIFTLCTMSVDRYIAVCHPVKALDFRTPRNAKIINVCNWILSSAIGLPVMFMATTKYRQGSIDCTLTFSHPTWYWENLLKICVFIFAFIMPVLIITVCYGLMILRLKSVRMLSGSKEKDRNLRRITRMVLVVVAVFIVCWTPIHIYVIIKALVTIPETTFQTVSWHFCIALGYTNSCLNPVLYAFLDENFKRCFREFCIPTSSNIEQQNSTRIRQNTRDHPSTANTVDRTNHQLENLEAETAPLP
Sequence of 5-hydroxytryptamine receptor 2A (P28223 whole entry): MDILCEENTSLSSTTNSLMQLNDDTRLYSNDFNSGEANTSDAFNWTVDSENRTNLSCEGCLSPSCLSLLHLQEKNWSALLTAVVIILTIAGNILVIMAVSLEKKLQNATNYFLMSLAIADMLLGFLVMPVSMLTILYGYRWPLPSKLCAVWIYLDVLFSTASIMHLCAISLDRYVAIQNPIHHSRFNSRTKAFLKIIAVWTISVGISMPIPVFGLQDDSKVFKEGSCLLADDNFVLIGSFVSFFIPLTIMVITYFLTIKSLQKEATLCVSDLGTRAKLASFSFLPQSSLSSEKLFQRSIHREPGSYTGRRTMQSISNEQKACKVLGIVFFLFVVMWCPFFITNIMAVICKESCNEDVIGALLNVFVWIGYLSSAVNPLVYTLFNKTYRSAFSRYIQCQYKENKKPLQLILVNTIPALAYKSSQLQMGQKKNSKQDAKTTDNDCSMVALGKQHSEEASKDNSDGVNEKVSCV

Take `Cl.Cl.O=c1c2cc(Cl)ccc2oc2ccc(CN3CCN(CCOCCO)CC3)cc12`: the inhibition in [1] is 10.3%; in series [3] it was 50.1%; in series [4], -1.2%; in [5], 62.8%; in series [9], 43.1%; in series [10], -3.1%. For the same compound, the inhibition was 24.8% in [11], 11.8% in [14] and 8.5% in [17]. Also, the inhibition at 20 h, 10 µM in series [2] was found to be 42.2%. This compound also showed an MRT in series [6] of 2.59 h. In addition, in [7], the Kp at 8 h is 9.79. In addition, the Activity_index amounted to 0.76 in series [8] and 0.45 in series [16]. Also, the Cmax in series [12] is 18600 ng/mL. Besides, in series [13], the CL/F amounted to 12.2 mL/min/kg. In [15], the Tmax was 0.25 h.

These data come from ChEMBL document CHEMBL4364344, “Design, synthesis and evaluation of activity and pharmacokinetic profile of new derivatives of xanthone and piperazine in the central nervous system” (Bioorg Med Chem Lett, 2019).
